Measurements reported in patent US11920139B2, “Regulated expression of antigen and/or regulated attenuation to enhance vaccine immunogenicity and/or safety” (priority 2007, dated 2024).

Columns and labels:
[1] = system: Salmonella Typhi strain χ9633(pYA4088); assay: Minimum inhibitory concentrations of antibiotics; format: cell-based; settings: for MIC: Salmonella enterica, TYPHI, read-out: Minimum inhibitory concentration
From the text: (§1) Master seed and working seed banks of each vaccine organism in separate vials have been prepared for frozen storage in vegetable-based cryopreservative. […] Antibiotic sensitivity testing has confirmed that these strains are sensitive to ciprofloxacin, ampicillin, ceftriaxone, trimethoprim/sulfamethoxazole (Table 15). Ampicillin, ciprofloxacin, ceftriaxone and trimethoprim/sulfamethoxazole are typically tested for minimum inhibitory concentrations (MICs) for Salmonella.

[2] = system: Salmonella Typhi strain χ9639(pYA4088); assay: microbe, parasite or virus in culture; format: cell-based; settings: for MIC: Salmonella enterica, TYPHI, read-out: Minimum inhibitory concentration
From the text: (§2) Master seed and working seed banks of each vaccine organism in separate vials have been prepared for frozen storage in vegetable-based cryopreservative. […] Ampicillin, ciprofloxacin, ceftriaxone and trimethoprim/sulfamethoxazole are typically tested for minimum inhibitory concentrations (MICs) for Salmonella.

[3] = system: Salmonella Typhi strain χ9640(pYA4088); assay: microbe, parasite or virus in culture; format: cell-based; settings: for MIC: Salmonella enterica, TYPHI, read-out: Minimum inhibitory concentration
From the text: as §2

[4] = system: the three vaccine strains (RASV-Sp); assay: Antibiotic sensitivity testing of the vaccine strains; format: cell-based, Salmonella Typhi
From the text: as §1

Row | Compound | MIC [1] | MIC [2] | MIC [3] | antibiotic sensitivity [4] | Minimum inhibitory concentration [1] | Minimum inhibitory concentration [2] | Minimum inhibitory concentration [3]
1 | CC1(C)S[C@@H]2[C@H](NC(=O)[C@H](N)c3ccccc3)C(=O)N2[C@H]1C(=O)O [ampicillin] | < 2 µg/mL | < 2 µg/mL | < 2 µg/mL | sensitive |  |  | 
2 | CO/N=C(\C(=O)N[C@@H]1C(=O)N2C(C(=O)O)=C(CSc3nc(=O)c(=O)[nH]n3C)CS[C@H]12)c1csc(N)n1 [ceftriaxone] | < 0.25 µg/mL | < 1 µg/mL | < 1 µg/mL | sensitive |  |  | 
3 | O=C(O)c1cn(C2CC2)c2cc(N3CCNCC3)c(F)cc2c1=O [ciprofloxacin] | < 0.25 µg/mL | < 0.25 µg/mL | < 0.25 µg/mL | sensitive |  |  | 
4 | trimethroprim-sulfamethoxazole |  |  |  | sensitive | <20 µg/mL | <20 µg/mL | <20 µg/mL
